The values that follow come from PubChem BioAssay AID264 (DTP/NCI, 2004).

Several values for one entry are separate records, joined by “and”; a condition that tells them apart may be missing. Identical values can stand only once. Records with an inconclusive call do not appear.

The test system of the experiment is nude mice, LX-1 lung xenograft intrarenal, tumor weight T/C. The experiment can be described thus: NCI In Vivo Anticancer Drug Screen. Data for tumor model Human Lung LX-1 Xenograft (intrarenal inoculation) in NU/NU Swiss (nude) mice. The conditions noted are these: endpoint: mean tumor weight change, higher = larger tumour. Put shortly:
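Activity was scored by measuring tumors in treated animals and in vehicle controls, then reporting the treated result as a fraction of the control result.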

Setting [1] is: dose: 50.0 mg/kg/injection, schedule: Q04DX003 (sc), vehicle: saline with Tween-80.
Where [2] appears, read: dose: 100.0 mg/kg/injection, schedule: Q04DX003 (sc), vehicle: saline with Tween-80.
[3] abbreviates: dose: 0.5 mg/kg/injection, schedule: Q01DX010 (sc), vehicle: saline.
Where [4] appears, read: dose: 300.0 mg/kg/injection, schedule: Q04DX003 (sc), vehicle: Klucel (hydroxypropylcellulose) (HPC).
The mark [5] stands for this setting: dose: 600.0 mg/kg/injection, schedule: Q04DX003 (sc), vehicle: Klucel (hydroxypropylcellulose) (HPC).
The mark [6] stands for this setting: dose: 1200.0 mg/kg/injection, schedule: Q04DX003 (sc), vehicle: Klucel (hydroxypropylcellulose) (HPC).
The mark [7] stands for this setting: dose: 2400.0 mg/kg/injection, schedule: Q04DX003 (sc), vehicle: Klucel (hydroxypropylcellulose) (HPC).

Consider `COC(C(=O)C(O)C(C)O)C1Cc2cc3cc(OC4CC(OC(C)=O)C(OC5CC(O)C(OC)C(C)O5)C(C)O4)cc(O)c3c(O)c2C(=O)C1OC1CC(OC2CC(OC3CC(C)(O)C(OC(=O)C(C)C)C(C)O3)C(O)C(C)O2)C(O)C(C)O1` (configuration not stated), for which the T/C (dose: 1.0 mg/kg/injection, schedule: Q04DX003 (sc), vehicle: saline with Tween-80) was 77 % of control; the T/C (dose: 2.0 mg/kg/injection, schedule: Q04DX003 (sc), vehicle: saline with Tween-80) is 58 % of control; the T/C (dose: 4.0 mg/kg/injection, schedule: Q01DX010 (sc), vehicle: saline with Tween-80) is 12 % of control and 30 % of control; the T/C (dose: 4.0 mg/kg/injection, schedule: Q04DX003 (sc), vehicle: saline with Tween-80) was 50 % of control.
Turning to `Clc1ccc2nnnn2n1`, the T/C is, setting by setting: under setting [1], 72 % of control; under setting [2], 88 % of control; (dose: 200.0 mg/kg/injection, schedule: Q04DX003 (sc), vehicle: saline with Tween-80) 85 % of control; (dose: 400.0 mg/kg/injection, schedule: Q04DX003 (sc), vehicle: saline with Tween-80) 93 % of control.
Consider `C=C1C(=O)OCC1C(=O)O` (configuration not stated), for which the T/C runs as follows: (dose: 50.0 mg/kg/injection, schedule: Q04DX003 (sc), vehicle: suspension in saline) 123 % of control; (dose: 100.0 mg/kg/injection, schedule: Q04DX003 (sc), vehicle: suspension in saline) 95 % of control; (dose: 200.0 mg/kg/injection, schedule: Q04DX003 (sc), vehicle: suspension in saline) 99 % of control.
Regarding `Nc1n[n+](-c2ccccc2)no1`, the T/C is 87 % of control (dose: 37.5 mg/kg/injection, schedule: Q04DX003 (sc), vehicle: water) and 89 % of control (dose: 75.0 mg/kg/injection, schedule: Q04DX003 (sc), vehicle: water).
Regarding `NC(=O)c1csc(C2OC(CO)C(O)C2O)n1` (configuration not stated), the T/C is 77 % of control (dose: 200.0 mg/kg/injection, schedule: Q04DX003 (sc), vehicle: water); 64 % of control (dose: 400.0 mg/kg/injection, schedule: Q04DX003 (sc), vehicle: water); 99 % of control (dose: 800.0 mg/kg/injection, schedule: Q04DX003 (sc), vehicle: water); 97 % of control (dose: 1600.0 mg/kg/injection, schedule: Q04DX003 (sc), vehicle: water).
In the case of `CCCCCC[C@@H](O)C/C=C\CCCCCCCC(=O)OCCO`, the T/C is 69 % of control (dose: 300.0 mg/kg/injection, schedule: Q04DX003 (sc), vehicle: saline); 90 % of control (dose: 600.0 mg/kg/injection, schedule: Q04DX003 (sc), vehicle: saline); 28 % of control (dose: 1200.0 mg/kg/injection, schedule: Q04DX003 (sc), vehicle: saline); 50 % of control (dose: 2400.0 mg/kg/injection, schedule: Q04DX003 (sc), vehicle: saline).
Take `COc1cc(C(=O)N/N=C/c2cccc([N+](=O)[O-])c2)cc(OC)c1OC`: the T/C (dose: 150.0 mg/kg/injection, schedule: Q04DX003 (sc), vehicle: saline with Tween-80) is 86 % of control.
Take `CCC/C=C/C=C/C(=O)OC1/C(=C/C(=O)OC)CC2CC(C(C)O)OC(=O)CC(O)CC3CC(OC(C)=O)C(C)(C)C(O)(CC4C/C(=C/C(=O)OC)CC(/C=C/C(C)(C)C1(O)O2)O4)O3` (configuration not stated): the T/C is 112 % of control (dose: 0.25 mg/kg/injection, schedule: Q04DX003 (sc), vehicle: saline + alcohol); 96 % of control (dose: 0.5 mg/kg/injection, schedule: Q04DX003 (sc), vehicle: saline + alcohol); 96 % of control (dose: 1.0 mg/kg/injection, schedule: Q04DX003 (ip), vehicle: saline + alcohol); 59 % of control (dose: 1.0 mg/kg/injection, schedule: Q04DX003 (sc), vehicle: saline + alcohol); 119 % of control (dose: 2.0 mg/kg/injection, schedule: Q04DX003 (ip), vehicle: saline + alcohol); 27 % of control and 40 % of control (dose: 2.0 mg/kg/injection, schedule: Q04DX003 (sc), vehicle: saline + alcohol). The T/C by setting is: (dose: 4.0 mg/kg/injection, schedule: Q04DX003 (ip), vehicle: saline + alcohol) 76 % of control; (dose: 8.0 mg/kg/injection, schedule: Q04DX003 (ip), vehicle: saline + alcohol) 81 % of control; (dose: 8.0 mg/kg/injection, schedule: Q04DX003 (sc), vehicle: saline + alcohol) 16 % of control; (dose: 10.0 mg/kg/injection, schedule: Q04DX003 (ip), vehicle: saline + alcohol) 93 % of control.
Regarding `O=C(NO)c1cc(O)c(O)c(O)c1`, the T/C was 66 % of control (dose: 200.0 mg/kg/injection, schedule: Q04DX003 (sc), vehicle: distilled water + Tween-80); 87 % of control (dose: 400.0 mg/kg/injection, schedule: Q04DX003 (sc), vehicle: distilled water + Tween-80); 100 % of control (dose: 800.0 mg/kg/injection, schedule: Q04DX003 (sc), vehicle: distilled water + Tween-80); 90 % of control (dose: 1600.0 mg/kg/injection, schedule: Q04DX003 (sc), vehicle: distilled water + Tween-80).
In the case of `O=C(Nc1cccc2c(OC(=O)C(Cl)Cl)c(N=Nc3ccc(S(=O)(=O)Nc4nccs4)cc3)cc(N=Nc3ccc(S(=O)(=O)Nc4nccs4)cc3)c12)C(Cl)Cl` (tested in a mixture with another compound), the T/C runs as follows: (dose: 25.0 mg/kg/injection, schedule: Q04DX003 (sc), vehicle: saline with Tween-80) 104 % of control; under setting [1], 92 % of control; under setting [2], 116 % of control; (dose: 300.0 mg/kg/injection, schedule: Q04DX003 (sc), vehicle: saline with Tween-80) 90 % of control; (dose: 600.0 mg/kg/injection, schedule: Q04DX003 (sc), vehicle: saline with Tween-80) 120 % of control; (dose: 1200.0 mg/kg/injection, schedule: Q04DX003 (sc), vehicle: saline with Tween-80) 83 % of control. The T/C (dose: 2400.0 mg/kg/injection, schedule: Q04DX003 (sc), vehicle: saline with Tween-80) was 120 % of control.
For the compound `S=C=NCCc1ccccc1`, for the setting “dose: 200.0 mg/kg/injection, schedule: Q01DX010 (sc), vehicle: saline with Tween-80”, the T/C is 68 % of control.
As for `COC(=O)C[C@](O)(CCCC(C)(C)O)C(=O)O[C@@H]1C(OC)=C[C@]23CCCN2CCc2cc4c(cc2[C@H]13)OCO4`, the T/C runs as follows: under setting [3], 115 % of control; (dose: 1.0 mg/kg/injection, schedule: Q01DX010 (sc), vehicle: saline) 61 % of control.
Take `COc1cc2c(c(OC)c1OC)-c1ccc(OC)c(=O)cc1[C@@H](NC(C)=O)CC2`: the T/C is 87 % of control (dose: 0.25 mg/kg/injection, schedule: Q01DX010 (sc), vehicle: saline) and 50 % of control under setting [3].
In the case of `Cc1ccc(NCC2(/N=C/c3ccccc3)OC(CO)C(O)C2O)cc1` (configuration not stated), the T/C was 122 % of control under setting [4], 98 % of control under setting [5], 80 % of control under setting [6] and 98 % of control under setting [7].
Take `S=C(Nc1ccc(Cl)c(Cl)c1)N1c2ccccc2-n2cccc2C1c1cccnc1` (configuration not stated): the T/C is 58 % of control under setting [4], 104 % of control under setting [5], 71 % of control under setting [6] and 65 % of control under setting [7].
Consider `O=S(=O)(O)O.[NH-]C1CCCCC1[NH-].[Pt+2]` (configuration not stated), for which the T/C is 85 % of control (dose: 0.63 mg/kg/injection, schedule: Q01DX010 (sc), vehicle: dextrose); 90 % of control (dose: 1.25 mg/kg/injection, schedule: Q01DX010 (sc), vehicle: dextrose); 82 % of control (dose: 2.5 mg/kg/injection, schedule: Q01DX010 (sc), vehicle: dextrose).
Consider `CC(C)CCCCCCCCCCCCC(=O)NCC(=O)NC1C(O)C(O)C(Nc2ncnc3nc[nH]c23)OC1C(O)CO` (configuration not stated), for which the T/C (dose: 0.4 mg/kg/injection, schedule: Q01DX010 (sc), vehicle: saline) is 84 % of control; the T/C (dose: 0.8 mg/kg/injection, schedule: Q01DX010 (sc), vehicle: saline) was 62 % of control; the T/C (dose: 1.6 mg/kg/injection, schedule: Q01DX010 (sc), vehicle: saline) is 48 % of control.
Take `O=C(O)c1c2c(nc3ccccc13)Cc1ccccc1-2`: the T/C (dose: 100.0 mg/kg/injection, schedule: Q01DX010 (sc), vehicle: water) is 39 % of control and the T/C (dose: 200.0 mg/kg/injection, schedule: Q01DX010 (sc), vehicle: water) is 33 % of control.
As to `CSC(SC)=C1C(=O)NC(=O)NC1=O`, the T/C (dose: 150.0 mg/kg/injection, schedule: Q04DX003 (sc), vehicle: suspension in saline) was 68 % of control; the T/C (dose: 300.0 mg/kg/injection, schedule: Q04DX003 (sc), vehicle: suspension in saline) was 102 % of control; the T/C (dose: 600.0 mg/kg/injection, schedule: Q04DX003 (sc), vehicle: suspension in saline) is 42 % of control.
